Our source for the TGI values is PubChem BioAssay (NCI).

What all share (test): growth of human tumour cells (NCI), 48 h
For test [1], the system named is MDA-N.
Test [2] deals with HOP-62 NSCLC.
In test [3] the test system is SK-MEL-28 melanoma.
Test [4] concerns HL-60(TB) leukemia.
The test system of test [5] is HOP-92 NSCLC.
The test system of test [6] is CCRF-CEM leukemia.
Test [7] has as its system PC-3 prostate.
The subject of test [8] is OVCAR-5 ovarian.
Test [9] relates to NCI-H23 lung.
In test [10] the test system is MALME-3M melanoma.

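48-hour exposure; five concentrations; linearly interpolated endpoints. TGI: concentration producing complete growth inhibition.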 A value given as a limit tells only on which side of the number the result lay.

`CC(=O)N(C(C)=O)n1c(Cc2ccc(C)cc2)nn(C(C)=O)c1=O`: the TGI in test [1], in [2], in test [3], in [4], in test [5] and in [6] was over 100 µM throughout. Further, the TGI in test [7], in test [8], in test [9] and in test [10] was over 100 µM throughout.
In the case of `Cc1c2ccccc2c(C)n2c1nc1ccccc12`, the TGI in test [1] is 25 µM; in test [2], 36 µM; in test [3], 22.5 µM; in test [4] it was over 100 µM; in [5], 45.2 µM; in test [6], 60.5 µM. Also, the TGI in test [7] came out at 25.2 µM; in test [8], 48.3 µM; in test [9] it was 30.7 µM; in [10], 23.5 µM.
Turning to `COc1ccc(N=C2C(=Nc3ccc(OC)cc3)N(c3ccc(N(C)C)cc3)C(=S)N2c2ccc(OC)cc2)cc1`, the TGI in [1], in test [2], in [3], in test [4], in test [5] and in test [6] was over 100 µM in each case. Moreover, the TGI in test [7], in test [8], in test [9] and in [10] was over 100 µM throughout.
For the molecule `O=C1CS[C@@](CC(c2ccc(Cl)cc2)c2ccc(Cl)cc2)(c2ccc(Cl)cc2)N1`, the TGI in test [1] was over 100 µM; in test [2], 82 µM; in [3] it was over 100 µM; in test [4], 28.4 µM; in test [5], 75 µM; in test [6] it was over 100 µM. Further, the TGI is 65.5 µM in test [7], over 100 µM in test [8], over 100 µM in test [9] and 82.6 µM in test [10].
For `CN(C)CCNC(=O)c1ccc(Cl)c2cc3ccccc3nc12`, the TGI in test [1] came out at 2.21 µM; in test [2] it was 4.6 µM; in [3], 4.03 µM; in test [4], 3.98 µM; in test [5], 2.2 µM; in test [6] it was 4.64 µM. In addition, the TGI is 2.6 µM in test [7], 10.7 µM in test [8], 2.08 µM in test [9] and 2.26 µM in test [10].
For `COC(=O)NC(Cc1ccccc1)NC(C)=O` (stereo unspecified), the TGI in test [1], in [2], in [3], in [4], in test [5] and in test [6] was over 100 µM each time. Further, the TGI in [7], in test [8], in test [9] and in [10] was over 100 µM throughout.
On to `CN[C@@H](C)[C@@H](O)c1ccccc1`, for which the TGI in test [1] was over 100 µM; in [2], over 100 µM; in [3], over 100 µM; in [4], over 100 µM; in [5], over 100 µM; in [6], over 10 µM. In addition, the TGI in test [7], in test [8], in [9] and in [10] was over 100 µM each time.
For `NC(=Nc1ccccc1)c1ccccc1N`, the TGI in test [1] was over 100 µM; in test [2] it was over 100 µM; in test [3] it was 64.4 µM; in [4], over 100 µM; in test [5], over 100 µM; in test [6] it was over 100 µM. The TGI in test [7], in test [8] and in test [9] was over 100 µM in each case.
For the molecule `CC(C)(C)OC(=O)N1[C@@H]2Cc3ccc(N)cc3[C@@]1(C)c1ccccc12`, the TGI in test [1] was 45.3 µM; in test [2], over 100 µM; in test [4] it was 44.9 µM; in [5] it was 52.3 µM; in test [6], 64.9 µM; in test [7], over 100 µM. Moreover, the TGI in [8] is over 100 µM; in test [9], 60.4 µM; in test [10], 91 µM.
Consider `CC12ON(P(=O)(c3ccccc3)c3ccccc3)C(C)(c3ccccc31)c1ccccc12`, for which the TGI in [1], in test [2], in test [3], in [4], in test [5] and in test [6] was over 100 µM in each case. For the same molecule, the TGI in [7], in [8], in test [9] and in test [10] was over 100 µM in each case.
For the molecule `Cc1cc(N(CCC#N)CCC#N)ccc1/C=C1\SC(=S)NC1=O`, the TGI in test [1], in test [2], in test [3], in test [4], in test [5] and in test [6] was over 100 µM each time. Also, the TGI in test [7], in test [8], in [9] and in test [10] was over 100 µM each time.
In the case of `COc1ccc(C2SCC(=O)N2NC(=O)C(C)Oc2ccccc2C)cc1` (stereo unspecified), the TGI in [1] is over 100 µM; in test [2], over 100 µM; in test [3], over 100 µM; in test [4], 61.2 µM; in [5] it was over 100 µM; in [6], over 100 µM. The TGI in [7], in test [8], in test [9] and in [10] was over 100 µM throughout.
`COc1ccc2c(c1)c1nn(CCN3CCCCC3)c3ccc4c(=O)n(CCN(C)C)c(=O)n2c4c13`: the TGI in test [1] was 0.117 µM; in test [2], 0.0384 µM; in [3], 0.596 µM; in test [4], 0.511 µM; in test [5] it was 0.901 µM; in test [6] it was 0.785 µM. The TGI in [7] came to 0.603 µM; in [8], 0.126 µM; in test [9], 0.627 µM; in [10], 0.351 µM.
On to `C=Cc1nc(C#N)c(N)o1`, for which the TGI in test [1], in test [2], in test [3], in [4], in test [5] and in test [6] was over 100 µM throughout. Also, the TGI in [7], in test [8], in [9] and in [10] was over 100 µM each time.
Turning to `O=C(N/N=C(/COc1ccccc1Cl)N=Cc1ccncc1)c1ccncc1`, the TGI in [1], in test [2], in [3], in test [4], in test [5] and in test [6] was over 100 µM throughout. Also, the TGI in test [7], in test [8], in test [9] and in test [10] was over 100 µM throughout.
On to `O=[N+]([O-])c1cccc(Cl)c1Oc1ccc(S(=O)(=O)/N=C(\NO)Nc2ccc(Cl)cc2)cc1`, for which the TGI in test [1] came to 26 µM; in test [2], 45.4 µM; in test [3], 34.7 µM; in test [4], 16.5 µM; in test [5] it was 17.1 µM; in test [6], 29.7 µM. The TGI in test [7] was 24.2 µM; in [8], 32.8 µM; in test [9], 33.9 µM; in test [10], 31.2 µM.
With `COc1cc(OC2OC(COC(=O)c3cc(O)c(O)c(O)c3)C(O)C(O)C2O)ccc1O` (stereo unspecified), the TGI in test [1], in test [2], in test [3], in [4], in test [5] and in [6] was over 100 µM in each case. For the same molecule, the TGI in [7] is 81.9 µM; in [8], over 100 µM; in [9], over 100 µM; in [10], over 100 µM.
With `Cc1cc(O)cc(O)c1C(=O)O[C@]1(C)C(=O)C=C2C=C(/C=C/C(=O)O)OC=C2C1=O`, the TGI is over 100 µM in [1]; over 100 µM in test [2]; over 100 µM in test [3]; 75.1 µM in test [4]; over 100 µM in [5]; 88.3 µM in test [6]. The TGI in test [7], in [8], in test [9] and in test [10] was over 100 µM throughout.
Regarding `Cc1cc2oc(C)c(S(=O)(=O)NC(=O)Nc3ccc(Cl)cc3)c(=O)c2c(=O)o1`, the TGI in test [1], in [2], in test [3], in test [4], in test [5] and in [6] was over 100 µM each time. Also, the TGI in test [7], in test [8], in test [9] and in [10] was over 100 µM throughout.
Turning to `N=c1oc2ccccc2cc1-c1nc2ccccc2c(=O)[nH]1`, the TGI in test [1] was over 100 µM; in test [2] it was 69.9 µM; in test [3], over 100 µM; in [4] it was over 100 µM; in test [5], 66.1 µM; in test [6], over 100 µM. Moreover, the TGI in test [7], in test [8] and in test [10] was over 100 µM each time.
Consider `CCOC(=O)C(NC(=O)CC)(Nc1ccc(F)c(Cl)c1)C(F)(F)F` (stereo unspecified), for which the TGI in test [1], in [2], in test [3], in [4], in [5] and in [6] was over 100 µM each time. Also, the TGI in test [7], in [8] and in test [10] was over 100 µM throughout.
Regarding `COCC12CCC(OC)C34C5CC6(O)C(OC)CC(OC(C)=O)(C5C6OC(=O)c5ccccc5)C(C(OC)C13)C4N(C)C2` (stereo unspecified), the TGI in [1], in [2], in test [3], in test [4], in [5] and in [6] was over 100 µM each time. Also, the TGI in [7], in test [8], in test [9] and in test [10] was over 100 µM throughout.
For `COC12C=CC(C=C1C#N)CC2` (stereo unspecified) (tested in a mixture with another compound), the TGI in [1], in test [2], in test [3], in [4], in test [5] and in [6] was over 100 µM in each case. The TGI in test [7], in [8], in test [9] and in test [10] was over 100 µM each time.
As for `Cc1cc(N2CCCC2)c([N+](=O)[O-])cc1[N+](=O)[O-]`, the TGI in test [1], in [3], in test [4], in test [5], in test [6] and in test [7] was over 100 µM each time. The TGI in [9] and in test [10] was over 100 µM in each case.
Consider `c1csc(-c2ccsc2-c2ccsc2)c1`, for which the TGI in test [1], in [2], in test [3], in test [4], in test [5] and in [6] was over 100 µM throughout. For the same molecule, the TGI in [7], in [8] and in test [9] was over 100 µM each time.
With `O=C(C(Cl)=C(N1CCCCC1)N1CCCCC1)C(Cl)Cl`, the TGI in test [1], in test [2], in [3], in test [4], in [5] and in test [6] was over 100 µM in each case. Besides, the TGI in [7], in test [9] and in test [10] was over 100 µM throughout.
As to `COC(=O)c1ccccc1C1=C([N+](=O)[O-])C(c2ccccc2)C(C#N)=C(N)O1` (stereo unspecified), the TGI in test [1], in [2], in test [3], in test [4], in [5] and in [6] was over 100 µM each time. For the same molecule, the TGI in test [7], in test [8] and in [9] was over 100 µM each time.
